Columns and labels:
PDGFβR = target: T1, PDGFβR (Mus musculus, UniProt P05622); assay: PDGF-induced PDGFβR autophosphorylation in intact Swiss 3T3 cells (FIG. 8); format: cell-based; conditions: at 1 μM
T1 construct: A preparation of purified PDGFR from Swiss 3T3 cell membranes was used; endogenous in cells
Method: Kinase reactions, using an isolated PDGFβR preparation, in the presence of 0.03-3 μM tyrphostin, were conducted, utilizing [γ-^32P]ATP as probe. Densitometric evaluation, relative to control lacking the tyrphostin inhibitor (100%), results in the percent autokinase activity, presented in Table 8 and in the dose-response curves for the purified transoid isomers AG2033 (FIG. 6) and AG2043 (FIG. 7). Further comparison between the resulting autoradiogrms for each pair of geometrical isomers AG2033 and AG2034 (upper panel); AG2043 and AG2044 (lower panel), for their inhibitory activity towards PDGF-induced PDGFβR autophosphorylation (concentration range: 0.1-10 μM) in intact cells is presented in FIG. 8. […] Similar potency relation exists between the AG2043 and AG2044 isomers.

PAEC/KDR cells [1] = assay: Proliferation of KDR transfected PAEC cells ([3H]thymidine incorporation); format: cell-based, porcine; conditions: Sus scrofa, read-out: IC50 (50% inhibition of proliferation) KDR
Method: (§1) Porcine aortic endothelial cells (PAEC), stably transfected with either PDGF-receptor (PAEC/PDGFβR cells, kindly provided by Dr. L. Claesson-Welsh, Uppsala, Sweden) or VEGF-receptor KDR (PAEC/KDR), respectively, were used as previously described. Cells were routinely cultured in Ham's F-12 medium supplemented with geneticin (0.4 mg/ml) and 10% FCS.
(§2) Assessment of cell proliferation ([^3H]thymidine incorporation assay): PAEC/KDR and PAEC/PDGFR cells, grown in Ham's F12 medium containing 10% FCS were seeded sparsely in 12 well culture dishes. After 24 hours, cells were washed two times with Ham's F12 medium containing 1% FCS and incubated for additional 48 hours with one renewal of medium. Cells were incubated for 15 minute with different concentrations of AG2033 (0.1; 1 and 10 μM) or with the solvent DMSO alone, stimulated with 3 ng/ml VEGF or with 15 ng/ml PDGF-BB for 20 hours, followed by addition of 0.25 μCi of [^3H]-thymidine/ml (Amersham) for two hours. High molecular weight [^3H]-radioactivity was precipitated using 5% trichloroacetic acid at 4° C. for 30 minutes. After two washes with ice-cold H2O, [^3H]-radioactivity was solubilized in 1 M NaOH (400 μl/well) at room temperature for 8 minutes, neutralized by the addition of 2 M HCL (400 μl/well), and quantitated by liquid scintillation counting. […]

PAEC/PDGFR cells [2] = assay: Proliferation of PDGFβR transfected PAEC cells ([3H]thymidine incorporation); format: cell-based, porcine; conditions: Sus scrofa, read-out: IC50 (50% inhibition of proliferation) PDGFβR
Method: as §1, §2

PAEC/KDR cells [3] = assay: Migration of KDR transfected PAEC cells toward VEGF (Boyden chamber); format: cell-based, porcine; conditions: Sus scrofa, VEGF 10 ng/ml, read-out: IC50 (50% inhibition of migration) KDR
Method: (§3) Assessment of cell migration (Chemotaxis assay): The chemotactic response of HCASMC, PAEC/KDR and PAEC/PDGFR cells was assessed using the modified Boyden chamber (Neuro Probe, Inc.) and collagen-coated polycarbonate filters (Nucleopore) with pore diameters of 8 μm as previously described. Briefly, PAEC/KDR and PAEC/PDGFR cells were cultivated and assayed in Ham's F12 medium containing 10% FCS. HCASMC were cultivated in SmGM-2 (clonetics) and assayed in SmBM-WM containing 10% FCS and 0.1% BSA. To the medium in the lower part of the Boyden chamber, either VEGF or PDGF-BB (10 ng/ml, respectively) were added. AG2033 was added to both upper and lower chamber parts. Suspended cells were given 4 hours for migration, after a preincubation period of 15 minute in AG2033. The number of cells that migrated without PDGF-BB or VEGF stimulation was referred to as 100% migration (chemokinesis). The assay was performed in triplicate, and five medium-power fields were counted per well using a light microscope (Jenalab).
(§4) Evaluation of PDGFβR or KDR stably transfected PAEC cells migration toward the respective growth factors, PDGD-BB and VEGF (10 ng/ml, respectively), in the presence of the purified AG2033 isomer, was conducted in a Boyden chamber (see experimental section, above). […]

PAEC/PDGFR cells [4] = assay: Migration of PDGFβR transfected PAEC cells toward PDGF-BB (Boyden chamber); format: cell-based, porcine; conditions: Sus scrofa, PDGF-BB 10 ng/ml, read-out: IC50 (50% inhibition of migration) PDGFβR
Method: as §3, §4

porcine SMC = assay: Inhibition of SMC proliferation and recovery (cell count); format: cell-based; conditions: 10 μM
Method: Smooth muscle cells (SMC) were obtained under aseptic conditions from porcine abdominal aortas. Each artery was cut open and the endothelial surface mechanically scraped. The vessels were then cut into 2 mm^2 fragments which were placed in culture dishes with Dulbecco's modified Eagle's medium (DMEM) supplemented with 15% (v/v) fetal calf serum (FCS), 100 u/ml penicillin, 100 μg/ml streptomycin, and […]. The tissue fragments were then placed in an incubator at 37° C. under 9% CO2 atmosphere until SMC outgrowth was detected (typically within 3-7 days). […] For experiments testing the effect of tyrphostins on growth inhibition and recovery (see below), SMC from passages 1-3 were replated in 15 mm wells pretreated with 3 μg/cm^2 fibronectin (Biological Industries, Kibbutz Beit Haemek, Israel) at 15,000 cells/well.
Inhibition of cell proliferation and recovery: Monolayer cell growth inhibition and recovery experiments were repeated 3 or 4 times. Each experiment was performed in triplicate. Approximately 15,000 cells (SMC or PAEC) in 1 ml of culture medium supplemented with either 15% FCS (SMC) or 10% FCS (PAEC) were seeded on day 0 in 15 mm-wells precoated with fibronectin (SMC) or uncoated (PAEC). Cultures were treated with 10 μM of the following tyrphostin compounds: AG2033, AC2034, AG2043 and AG2044 (for SMC) or AG2033 (for PAEC) dissolved in 0.1% DMSO on days 1 and 3. On day 7, cultures were washed and the cells allowed to recover. Typically cells were counted on days 3 and 6 for inhibition, and on day 13 for recovery. The medium supplemented with serum (DMEM for SMC and Ham's F12 for PAEC) was changed every other day throughout the experiment.
Cells were grown in the presence of the specified tyrphostins and were counted on days 3, 6 and 13 in culture. On day 7 the cultures were washed and the cells allowed to recover. […] The inhibitory effect of all three compounds was reversible, and the cells resumed normal growth response as soon as the treatment with the tyrphostins was withdrawn.

T1 sequence (P05622 32-1098): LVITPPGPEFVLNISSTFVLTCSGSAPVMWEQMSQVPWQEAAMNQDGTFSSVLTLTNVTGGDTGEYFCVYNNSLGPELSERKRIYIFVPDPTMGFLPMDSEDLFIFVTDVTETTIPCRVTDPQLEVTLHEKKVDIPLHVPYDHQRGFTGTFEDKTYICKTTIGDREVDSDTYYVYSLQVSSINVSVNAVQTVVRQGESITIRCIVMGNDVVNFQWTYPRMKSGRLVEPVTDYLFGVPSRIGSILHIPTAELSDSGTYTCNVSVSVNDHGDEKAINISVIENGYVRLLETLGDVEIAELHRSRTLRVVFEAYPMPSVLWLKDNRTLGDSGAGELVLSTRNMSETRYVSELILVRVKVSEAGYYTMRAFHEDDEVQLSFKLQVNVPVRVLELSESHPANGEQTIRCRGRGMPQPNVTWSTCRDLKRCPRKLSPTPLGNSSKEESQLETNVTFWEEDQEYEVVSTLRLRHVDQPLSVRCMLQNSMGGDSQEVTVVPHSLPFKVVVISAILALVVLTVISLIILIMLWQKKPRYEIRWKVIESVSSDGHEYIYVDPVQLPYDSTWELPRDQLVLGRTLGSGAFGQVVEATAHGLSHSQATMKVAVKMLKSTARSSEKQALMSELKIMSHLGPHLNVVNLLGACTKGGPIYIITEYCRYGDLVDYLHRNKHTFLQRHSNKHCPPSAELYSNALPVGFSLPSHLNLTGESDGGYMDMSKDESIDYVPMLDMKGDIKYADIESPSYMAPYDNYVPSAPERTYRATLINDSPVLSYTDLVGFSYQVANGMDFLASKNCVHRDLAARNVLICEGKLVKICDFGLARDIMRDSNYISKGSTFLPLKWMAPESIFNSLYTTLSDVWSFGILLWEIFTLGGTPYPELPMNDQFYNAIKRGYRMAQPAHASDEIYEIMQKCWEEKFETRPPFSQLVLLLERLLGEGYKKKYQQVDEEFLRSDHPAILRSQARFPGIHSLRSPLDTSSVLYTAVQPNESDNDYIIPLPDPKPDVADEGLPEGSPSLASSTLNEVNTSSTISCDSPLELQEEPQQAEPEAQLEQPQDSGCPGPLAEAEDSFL

Row | SMILES | inhibitory activity towards PDGF-induced PDGFβR autophosphorylation in intact cells (PDGFβR) | melting point [°C] | IC50 (PAEC/KDR cells [1]) [µM] | IC50 (PAEC/PDGFR cells [2]) [µM] | IC50 (PAEC/KDR cells [3]) [µM] | IC50 (PAEC/PDGFR cells [4]) [µM] | toxic effect on the cells (porcine SMC; SMC) | mean reduction in SMC count by day 3 (porcine SMC; compared to DMSO treated control cells) [%] | reversibility of the inhibitory effect on SMC proliferation (porcine SMC; cultures washed on day 7, recovery counted day 13)
1 | Cc1nc2cc3nc(-c4ccccc4)cnc3cc2n1C [AG2033, 1,2-dimethyl-6-phenyl imidazolo[5,4-g]quinoxaline] | marked inhibitory activity | 275 | > 10 | 2.5 | > 10 | 5 | – | – | –
2 | Cc1nc2cc3nc(-c4cccs4)cnc3cc2n1C [AG2043, 1,2-dimethyl-6-(2-thiophene) imidazolo[5,4-g]quinoxaline] | – | – | – | – | – | – | without having a substantial toxic effect | 46 | completely reversible

Source: patent US6673798B2, “PDGF receptor kinase inhibitory compounds, their preparation, purification and pharmaceutical compositions including same” (Yissum Research Development Company of the Hebrew …, priority 1999, dated 2004)
